According to patent US20040039014A1, “Methods and compounds for treating depression and other disorders” (NPS Pharmaceuticals, Inc., priority 1998, published 2004):
Structures can show the parent of a compound that is named as a salt. Where two headings read alike, the source gives them in different places.

How the values were obtained:
NMDA receptor = molecular target: T1, NMDA receptor; assay: [3H]MK-801 binding assay (rat cortex synaptic plasma membranes); settings: read-out: [3H]MK-801 data IC50, Table I
T1 construct: rat cortex membranes
Experimental: Synaptic plasma membranes (SPMs) from rat cortex were prepared as follows. Isolated cerebral cortices from male and female rats were purchased from Pel-Freez (Rogers, Ariz.) in bulk, and stored at −80° C. The cortices from 25 rats were thawed and pooled. […] The resulting homogenates were centrifuged for 10 min at 1,000×g in a T865 rotor, UltraPro80 Sorvall Centrifuge. The supernatant was removed and subsequently centrifuged at 30,000×g for 30 min. […] Membranes were washed by re-suspension in 500 ml of 5 mM K-EDTA (pH 7.0), incubated at 32° C. for 30 min with stirring, and centrifuged at 100,000×g for 30 min. The final pellet was resuspended in 60 ml of […] K-EDTA (pH 7.0) and stored in aliquots at −80° C. The extensive washing procedure utilized in this assay was designed to minimize the concentrations of glutamate and glycine (co-agonists at the NMDA receptor-ionophore complex) present in the membrane preparation.
On the day of assay, aliquots of SPM were thawed and resuspended in 75 vols of 5 mM K-EDTA, pH 7.0. SPM were centrifuged at 100,000×g for 30 min at 4° C.
The SPM pellet was resuspended in assay buffer (30 mM EPPS, 1 mM K-EDTA, pH 7.0) by polytron. […] Binding was started by the addition of the tissue homogenate. The assay was terminated by the addition of 4 ml ice-cold buffer, followed by filtration over glass-fiber filters (Schleicher & Schuell No. 30) on a Millipore 12-well filtration manifold. Filters were washed with another 3 ×4 ml ice-cold buffer (pH 7.0). Radioactivity on the filters was measured using Fisherbrand Scinti-Safe scintillation cocktail. Samples were shaken for 45-60 min on a shaker platform to solubilize the radioactivity. Counting for ^3H was performed in a Beckman 6000IC LS Scintillation Counter for 4 min per sample.

[1] = molecular target: T2, serotonin transporter site (Rattus norvegicus, UniProt P31652); assay: Serotonin reuptake inhibition assay ([3H]citalopram binding, rat forebrain membranes); settings: Table I; for inhibition at 0.1 µM: @ 100 nM (top number); for inhibition at 0.1 µM / inhibition at 10 µM: read-out: 5-HT Uptake mean % inhibition; for inhibition at 10 µM: @ 10.0 μM (bottom number); for Ki: read-out: 5-HT Uptake Ki
T2 construct: tissue NovaScreen (performed the assay); host or cells: rat forebrain membranes
T2 sequence (P31652 whole entry): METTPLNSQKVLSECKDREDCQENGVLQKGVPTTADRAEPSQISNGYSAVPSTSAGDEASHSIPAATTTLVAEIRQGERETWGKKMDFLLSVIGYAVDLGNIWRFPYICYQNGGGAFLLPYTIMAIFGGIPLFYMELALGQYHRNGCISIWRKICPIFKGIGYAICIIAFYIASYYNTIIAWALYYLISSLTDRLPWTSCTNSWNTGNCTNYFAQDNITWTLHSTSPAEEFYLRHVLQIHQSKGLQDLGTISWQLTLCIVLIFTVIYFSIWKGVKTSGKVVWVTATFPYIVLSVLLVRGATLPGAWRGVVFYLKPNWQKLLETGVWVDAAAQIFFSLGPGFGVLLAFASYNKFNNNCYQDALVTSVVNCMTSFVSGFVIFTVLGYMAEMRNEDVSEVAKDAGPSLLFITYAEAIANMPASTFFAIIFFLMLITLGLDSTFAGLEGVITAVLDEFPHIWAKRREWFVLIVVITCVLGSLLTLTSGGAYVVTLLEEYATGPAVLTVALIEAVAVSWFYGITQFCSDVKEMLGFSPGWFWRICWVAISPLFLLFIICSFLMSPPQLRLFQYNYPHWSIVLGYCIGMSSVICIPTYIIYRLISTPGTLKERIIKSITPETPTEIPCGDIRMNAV
Experimental: (§1) Monoamine Transporter Minding Assays
(§2) Monoamine transporter binding assays (reuptake inhibition assays) were performed by NovaScreen using standard radioligand binding assays. The transporter binding assays are described briefly below:
Serotonin Reuptake Inhibition Assay
Rat forebrain membranes were incubated with 0.7 nM [^3H] citalopram, N-methyl, (70-87 Ci/mmol)in 50 mM Tris-HCl (pH 7.4), 120 mM NaCl, and 5 mM KCl at 25° C. for 60 minutes. […] Reactions were terminated by rapid vacuum filtration onto glass fiber filters.

[2] = molecular target: T3, norepinephrine transporter site (Rattus norvegicus, UniProt Q63380); assay: Norepinephrine reuptake inhibition assay ([3H]nisoxetine binding, rat forebrain membranes); settings: for inhibition at 0.1 µM / inhibition at 10 µM: read-out: NE Uptake mean % inhibition; for Ki: read-out: NE Uptake Ki
T3 construct: tissue NovaScreen (performed the assay); host or cells: rat forebrain membranes
T3 sequence (Q63380 1-617): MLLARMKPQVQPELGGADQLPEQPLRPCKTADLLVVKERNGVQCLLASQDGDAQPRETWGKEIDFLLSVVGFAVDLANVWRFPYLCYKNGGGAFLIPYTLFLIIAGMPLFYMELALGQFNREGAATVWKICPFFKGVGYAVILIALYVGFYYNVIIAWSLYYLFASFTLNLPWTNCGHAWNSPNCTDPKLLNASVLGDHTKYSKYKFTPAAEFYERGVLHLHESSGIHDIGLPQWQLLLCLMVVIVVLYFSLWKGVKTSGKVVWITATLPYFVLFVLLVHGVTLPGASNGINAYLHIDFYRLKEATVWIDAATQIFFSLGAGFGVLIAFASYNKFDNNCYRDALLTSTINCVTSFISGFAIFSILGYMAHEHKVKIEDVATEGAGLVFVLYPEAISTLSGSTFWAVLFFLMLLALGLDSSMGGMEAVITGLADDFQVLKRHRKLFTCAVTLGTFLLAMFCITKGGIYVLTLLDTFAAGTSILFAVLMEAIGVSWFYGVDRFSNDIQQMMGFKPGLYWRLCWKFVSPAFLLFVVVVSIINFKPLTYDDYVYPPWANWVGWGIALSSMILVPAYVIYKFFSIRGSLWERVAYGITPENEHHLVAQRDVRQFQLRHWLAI
Experimental: as §1, §2
Norepinephrine Reuptake Inhibition Assay
Reactions were terminated by rapid vacuum filtration onto glass fiber filters.

[3] = molecular target: T4, dopamine transporter site (Cavia porcellus, UniProt H0WCX4); assay: Dopamine reuptake inhibition assay ([3H]WIN 35428 binding, guinea pig striatal membranes); settings: for inhibition at 0.1 µM / inhibition at 10 µM: read-out: DA Uptake mean % inhibition; for Ki: read-out: DA Uptake Ki
T4 construct: tissue NovaScreen (performed the assay); host or cells: guinea pig striatal membranes
T4 sequence (H0WCX4 1-619): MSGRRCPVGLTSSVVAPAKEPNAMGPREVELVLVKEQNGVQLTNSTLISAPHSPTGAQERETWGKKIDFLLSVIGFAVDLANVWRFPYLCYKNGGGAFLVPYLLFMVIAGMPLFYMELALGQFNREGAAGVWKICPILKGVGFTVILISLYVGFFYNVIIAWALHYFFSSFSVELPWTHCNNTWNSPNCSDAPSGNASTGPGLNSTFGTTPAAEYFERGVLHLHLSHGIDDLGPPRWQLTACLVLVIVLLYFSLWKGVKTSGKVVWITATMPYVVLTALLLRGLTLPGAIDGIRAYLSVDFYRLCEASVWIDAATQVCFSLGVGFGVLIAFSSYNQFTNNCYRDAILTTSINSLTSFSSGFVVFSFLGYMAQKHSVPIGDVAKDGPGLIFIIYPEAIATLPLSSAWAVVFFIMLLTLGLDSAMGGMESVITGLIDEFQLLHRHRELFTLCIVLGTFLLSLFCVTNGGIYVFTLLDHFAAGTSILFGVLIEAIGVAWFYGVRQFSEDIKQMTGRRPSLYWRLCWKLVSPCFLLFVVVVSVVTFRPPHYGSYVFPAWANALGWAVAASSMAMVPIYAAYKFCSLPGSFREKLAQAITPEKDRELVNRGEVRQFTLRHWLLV
Experimental: as §1, §2
Dopamine Reuptake Inhibition Assay:
Reactions were terminated by rapid vacuum filtration onto glass fiber filters. Bound radioactivity was determined using liquid scintillation spectrometry and experimental values were compared to control values to determine binding to the dopamine transporter site based on Madras, et al., Molec.

[4] = @ 10.0 μM (bottom number), Table I

CC(CN)C(c1cccc(Cl)c1)c1cccc(Cl)c1 (centres unmarked) [Compound 46]
IC50 (NMDA receptor): 5200 nM | inhibition at 0.1 µM [1]: 10.4% | inhibition at 10 µM [1]: 75.4% | inhibition at 0.1 µM [2]: 7.4% | inhibition at 10 µM [2]: 64% | inhibition at 0.1 µM [3]: 40.2% | inhibition at 10 µM [3]: 97.1%

Cc1ccc(F)cc1C(CCN)c1cc(F)ccc1C [Compound 58]
IC50 (NMDA receptor): 203 nM | inhibition at 0.1 µM [1]: 27.2% | inhibition at 10 µM [1]: 95.2% | inhibition at 0.1 µM ([2]; @ 100 nM (top number), Table I): 1.3% | inhibition at 10 µM [2, 4]: 66.6% | inhibition at 0.1 µM ([3]; @ 100 nM (top number), Table I): 0% | inhibition at 10 µM [3, 4]: 45.2%

CCNCCC(c1cccc(F)c1)c1cccc(F)c1 [Compound 59]
IC50 (NMDA receptor): 453 nM | inhibition at 0.1 µM [1]: 14.3% | inhibition at 10 µM [1]: 85.7% | inhibition at 0.1 µM ([2]; @ 100 nM (top number), Table I): 7.4% | inhibition at 10 µM [2, 4]: 50.6% | inhibition at 0.1 µM ([3]; @ 100 nM (top number), Table I): 1.6% | inhibition at 10 µM [3, 4]: 77.6%

N[C@H]1CCCC1C(c1cccc(F)c1)c1cccc(F)c1 (some centres unmarked) [Compound 63]
IC50 (NMDA receptor): 245 nM | inhibition at 0.1 µM [1]: 13.4% | inhibition at 10 µM [1]: 84.6% | inhibition at 0.1 µM ([2]; @ 100 nM (top number), Table I): 6.8% | inhibition at 10 µM [2, 4]: 76.2% | inhibition at 0.1 µM ([3]; @ 100 nM (top number), Table I): 64.3% | inhibition at 10 µM [3, 4]: 97.8%

N[C@@H]1CCCC1C(c1cccc(F)c1)c1cccc(F)c1 (some centres unmarked) [Compound 64]
IC50 (NMDA receptor): 851 nM | Ki [1]: 252 nM | Ki ([2]; Table I): 508 nM | Ki ([3]; Table I): 119 nM

Cc1ccccc1C(CCN)c1ccccc1C [Compound 65]
IC50 (NMDA receptor): 2000 nM | Ki [1]: 127 nM | Ki ([3]; Table I): 22000 nM

CNC[C@H](C)C(c1cccc(F)c1)c1cccc(F)c1 [Compound 66]
IC50 (NMDA receptor): 1200 nM | inhibition at 0.1 µM [1]: 6.1% | inhibition at 10 µM [1]: 67.5% | inhibition at 0.1 µM ([2]; @ 100 nM (top number), Table I): 4.2% | inhibition at 10 µM [2, 4]: 36.5% | inhibition at 0.1 µM ([3]; @ 100 nM (top number), Table I): 4.4% | inhibition at 10 µM [3, 4]: 92.8%

CN[C@@H](C)CC(c1cccc(F)c1)c1cccc(F)c1 [Compound 69]
IC50 (NMDA receptor): 366 nM

CNCCC(c1ccccc1)c1cccc(F)c1 (centres unmarked) [Compound 108]
IC50 (NMDA receptor): 942 nM

NCCC(Oc1ccccc1)c1cccc(F)c1 (centres unmarked) [Compound 118]
IC50 (NMDA receptor): 240 nM | Ki [1]: 131 nM | Ki ([3]; Table I): 4100 nM

NCCC(Oc1cccc(F)c1)c1cccc(F)c1 (centres unmarked) [Compound 119, 3-(3-Fluorophenoxy)-3-(3-fluorophenyl)-1-propylamine]
inhibition at 0.1 µM [1]: 0.6% | inhibition at 10 µM [1]: 3.1%

NCCC(Oc1cccc(Cl)c1)c1cccc(F)c1 (centres unmarked) [Compound 120]
IC50 (NMDA receptor): 74 nM

COc1ccccc1OC(CCN)c1cccc(F)c1 (centres unmarked) [Compound 121]
IC50 (NMDA receptor): 670 nM | inhibition at 0.1 µM [1]: 8.5% | inhibition at 10 µM [1]: 84.3% | inhibition at 0.1 µM ([2]; @ 100 nM (top number), Table I): 33.6% | inhibition at 10 µM [2, 4]: 94.9% | inhibition at 0.1 µM ([3]; @ 100 nM (top number), Table I): 1.8% | inhibition at 10 µM [3, 4]: 91.3%

NCCC(Oc1ccccc1F)c1cccc(F)c1 (centres unmarked) [Compound 122]
IC50 (NMDA receptor): 342 nM | Ki [1]: 62 nM | Ki ([2]; Table I): 103 nM | Ki ([3]; Table I): 2800 nM

CNCCC(c1cccc(F)c1)c1cccc(OC)c1 (centres unmarked) [Compound 142]
IC50 (NMDA receptor): 1540 nM

CNCCC(Oc1cccc(F)c1)c1cccc(F)c1 (centres unmarked) [Compound 145]
IC50 (NMDA receptor): 626 nM | inhibition at 0.1 µM [1]: 3.5% | inhibition at 10 µM [1]: 81.1% | inhibition at 0.1 µM ([2]; @ 100 nM (top number), Table I): 16.6% | inhibition at 10 µM [2, 4]: 99.4% | inhibition at 0.1 µM ([3]; @ 100 nM (top number), Table I): 0% | inhibition at 10 µM [3, 4]: 87.4%

NCCC(Oc1ccccc1)c1cccc(Cl)c1 (centres unmarked) [Compound 148]
IC50 (NMDA receptor): 373 nM

NCCC(Oc1cccc(Cl)c1)c1cccc(Cl)c1 (centres unmarked) [Compound 149]
IC50 (NMDA receptor): 150 nM

NCCC(Oc1cccc(F)c1)c1cccc(Cl)c1 (centres unmarked) [Compound 150]
IC50 (NMDA receptor): 351 nM

NCCC1c2ccccc2CCc2ccccc21 [Compound 156, 5-(2-Aminoethyl)-5H-10,11-dihydrodibenzo [a, d] cycloheptene hydrochloride]
IC50 (NMDA receptor): 90 nM | Ki [1]: 1200 nM | Ki ([2]; Table I): 570 nM | Ki ([3]; Table I): > 10000 nM

Cc1ccccc1OC(CCN)c1ccccc1 (centres unmarked) [Compound 177]
IC50 (NMDA receptor): 754 nM | Ki [2]: 109 nM | Ki ([3]; Table I): > 10000 nM

COc1ccccc1OC(CCN)c1ccccc1 (centres unmarked) [Compound 178]
IC50 (NMDA receptor): 1250 nM

Cc1ccccc1OC(CCN)c1cccc(F)c1 (centres unmarked) [Compound 181]
IC50 (NMDA receptor): 632 nM | inhibition at 0.1 µM [1]: 37.4% | inhibition at 10 µM [1]: 74.2% | inhibition at 0.1 µM ([2]; @ 100 nM (top number), Table I): 10.7% | inhibition at 10 µM [2, 4]: 32% | inhibition at 0.1 µM ([3]; @ 100 nM (top number), Table I): 0% | inhibition at 10 µM [3, 4]: 109%

NCCC1c2ccccc2Oc2ccccc21 [Compound 182]
IC50 (NMDA receptor): 7050 nM

NCCC1c2ccccc2Sc2ccccc21 [Compound 183]
IC50 (NMDA receptor): 5010 nM

NCCC1c2ccccc2C=Cc2ccccc21 [Compound 184]
IC50 (NMDA receptor): 1510 nM

NCC[C@@H](Oc1cccc(F)c1)c1ccccc1 [Compound 185, (R)-3-(3-Fluorophenoxy)-3-phenylpropylamine]
Ki [1]: 2400 nM | Ki ([3]; Table I): 1100 nM

NCC[C@H](Oc1cccc(F)c1)c1ccccc1 [Compound 186]
Ki ([3]; Table I): 3100 nM

NCCC1c2ccccc2COc2ccccc21 (centres unmarked) [Compound 187]
IC50 (NMDA receptor): 2010 nM

NCC[C@@H](Oc1cccc(F)c1)c1cccc(F)c1 [Compound 191]
IC50 (NMDA receptor): 1300 nM | Ki [1]: 134 nM | Ki ([2]; Table I): 638 nM | Ki ([3]; Table I): 1550 nM

NCC[C@H](Oc1cccc(F)c1)c1cccc(F)c1 [Compound 192]
Ki [1]: 14 nM | Ki ([2]; Table I): 325 nM | Ki ([3]; Table I): 1300 nM

NCCC1c2cccc(F)c2CCc2c(F)cccc21 [Compound 193]
IC50 (NMDA receptor): > 1000 nM

NCCC1c2cc(F)ccc2CCc2c(F)cccc21 (centres unmarked) [Compound 194]
IC50 (NMDA receptor): 371 nM

NCCC1c2cc(F)ccc2CCc2ccc(F)cc21 [Compound 195]
IC50 (NMDA receptor): 29 nM

NCCC1c2ccccc2CCc2c(F)cccc21 (centres unmarked) [Compound 196]
IC50 (NMDA receptor): 2240 nM

NCCC1c2ccccc2CCc2ccc(F)cc21 (centres unmarked) [Compound 197]
IC50 (NMDA receptor): 53 nM | inhibition at 0.1 µM [1]: 9.8% | inhibition at 10 µM [1]: 58.1% | inhibition at 0.1 µM ([2]; @ 100 nM (top number), Table I): 0% | inhibition at 10 µM [2, 4]: 27.5% | inhibition at 0.1 µM ([3]; @ 100 nM (top number), Table I): 0% | inhibition at 10 µM [3, 4]: 83.5%

Fc1ccc([C@@H]2CCNC[C@H]2COc2ccc3c(c2)OCO3)cc1 [Paroxetine, reference compound]
inhibition at 0.1 µM [3]: < 20%
